Experiment [1] concerns HCV chimeric replicon with NS5A of genotype 3a (NC00982). Description: Cell-based HCV replicon assay (TaqMan), chimeric replicon genotype 3a (NC00982). Particulars: Hepatitis C virus, 72 h, read-out: HCV replicon EC50 3a (NC00982), chimeric replicon 3a (NC00982); replicon RNA by TaqMan, day 3. The procedure:
(§1) Measurement of inhibition by compounds of the present invention was performed using the HCV replicon system. Several different replicons encoding different HCV genotypes or mutations were used. In addition, potency measurements were made using different formats of the replicon assay, including different ways of measurements and different plating formats. See Jan M. Vrolijk et al., A replicons-based bioassay for the measurement of interferons in patients with chronic hepatitis C, 110 J. VIROLOGICAL METHODS 201 (2003); Steven S. Carroll et al., Inhibition of Hepatitis C Virus RNA Replication by 2′-Modified Nucleoside Analogs, 278(14) J. BIOLOGICAL […] 11979 (2003). However, the underlying principles are common to all of these determinations, and are outlined below.
(§2) Compounds of the present invention were assayed for cell-based anti-HCV activity using the following protocol. Replicon cells were seeded at 5000 cells/well in 96-well collagen I-coated Nunc plates in the presence of the test compound. Various concentrations of test compound, typically in 10 serial 2-fold dilutions, were added to the assay mixture, with the starting concentration ranging from 250 μM to 1 μM. The final concentration of DMSO was 0.5%, fetal bovine serum was 5%, in the assay media. Cells were harvested on day 3 by the addition of 1× cell lysis buffer (Ambion cat #8721). The replicon RNA level was measured using real time PCR (TaqMan® assay). The amplicon was located in 5B. The PCR primers were: 5B.2F, […] (SEQ. ID NO. 1); 5B.2R, […] (SEQ. ID NO. 2); the probe sequence was FAM-labeled […] (SEQ. ID NO. 3). GAPDH RNA was used as endogenous control and was amplified in the same reaction as NS5B (multiplex PCR) using primers and VIC-labeled probe recommended by the manufacturer (PE Applied Biosystem). The real-time RT-PCR reactions were run on ABI PRISM 7900HT Sequence Detection System using the following program: 48° C. for 30 minutes, 95° C. for 10 minutes, 40 cycles of 95° C. for 15 sec, 60° C. for 1 minute. The ΔCT values (CT5B-CTGAPDH) were plotted against the concentration of test compound and fitted to the sigmoid dose-response model using XLfit4 (MDL). […] Alternatively, to quantitate the absolute amount of replicon RNA, a standard curve was established by including serially diluted T7 transcripts of replicon RNA in the Taqman assay. All TaqMan® reagents were from PE Applied Biosystems. Such an assay procedure was described in detail in e.g. Malcolm et al., Antimicrobial Agents and Chemotherapy 50: 1013-1020 (2006).
(§3) Wherein gt1a_H77 was prepared as described in Yi et al., J Virol. 2004, 78(15):7904-15; gt1b_con1 was prepared as described in Lohmann et al., Science 1999, 285(5424):110-3; and gt2a_JFH was prepared as described in Kato et al., Gastroenterology. 2003, 125(6):1808-17. Chimeric replicons contain NS5A from patient isolates of genotypes 1a, 1b, 2b, 3a and 4a as indicated.
(In general: A replicon is a self-replicating genome or part of one, used to study replication in cells.)

Experiment [2] has as its system HCV replicon gt2a_JFH. The experiment in a line: Cell-based HCV replicon assay (TaqMan), genotype 2a (JFH). The conditions noted are these: Hepatitis C virus, 72 h, replicon 2a (JFH); replicon RNA by TaqMan, day 3. The protocol: as §1, §2, §3
Experiment [3] relates to HCV chimeric replicon with NS5A of genotype 4a (DQ41878). The experiment in a line: Cell-based HCV replicon assay (TaqMan), chimeric replicon genotype 4a (DQ41878). The conditions noted are these: Hepatitis C virus, 72 h, read-out: HCV replicon EC50 4a (DQ41878). The protocol:
as §1, §2, §3

Experiment [4] deals with HCV replicon 1a (L31V) mutant. The experiment in a line: Cell-based HCV replicon assay (TaqMan), genotype 1a mutant L31V. Particulars: Hepatitis C virus, 72 h, read-out: HCV replicon EC50 1a (L31V). The protocol:
as §1, §2, §3

Experiment [5] deals with HCV replicon 1a (Y93H) mutant. The experiment in a line: Cell-based HCV replicon assay (TaqMan), genotype 1a mutant Y93H. Particulars: Hepatitis C virus, 72 h, read-out: HCV replicon EC50 1a (Y93H). The procedure: as §1, §2, §3
Experiment [6] relates to HCV replicon gt1b_con1. The experiment in a line: Cell-based HCV replicon assay (TaqMan), genotype 1b (Con1). Particulars: Hepatitis C virus, 72 h; replicon 1b (Con1); replicon RNA by TaqMan, day 3. The procedure: as §1, §2, §3
In experiment [7] the test system is HCV replicon gt1a_H77. Description: Cell-based HCV replicon assay (TaqMan), genotype 1a (H77). The conditions noted are these: Hepatitis C virus, 72 h, replicon 1a (H77); replicon RNA by TaqMan, day 3. The procedure: as §1, §2, §3

Molecules are shown by their SMILES. A value given as a limit tells only on which side of the number the result lay.

A word on the EC50: it is the concentration that produces a half-maximal response. In the case of `CC(C)[C@H](NC(=O)OC1(C)CC1)C(=O)N1CCC(F)(F)C[C@H]1c1ncc(-c2ccc(-c3ccc4c(ccc5nc([C@@H]6C[Si](C)(C)CN6C(=O)[C@@H](NC(=O)OC6(C)CC6)C(C)C)[nH]c54)c3)cc2)[nH]1` [Compound 86], the EC50 was > 100 nM in experiment [1]; > 10 nM in experiment [2]; > 100 nM in experiment [3]; > 1000 nM in experiment [4]; > 1000 nM in experiment [5]; 141 nM in experiment [6]. In addition, the EC50 in experiment [7] was > 1 nM.

As to `COC(=O)N[C@H](C(=O)N1CCC(F)(F)C[C@H]1c1ncc(-c2ccc(-c3ccc4c(ccc5nc([C@@H]6C[Si](C)(C)CN6C(=O)[C@@H](NC(=O)OC)C(C)C)[nH]c54)c3)cc2)[nH]1)C(C)C` [Compound 85], the concentration giving a half-maximal response (EC50) is 0.69 nM in experiment [1]; 0.065 nM in experiment [2]; 1.16 nM in experiment [3]; 89 nM in experiment [4]; 728 nM in experiment [5]; 0.009 nM in experiment [6]. The midpoint of the response in experiment [7], the EC50, lay at 0.102 nM.

With `COCCOC(=O)N[C@H](C(=O)N1CCC(F)(F)C[C@H]1c1ncc(-c2ccc(-c3ccc4c(ccc5nc([C@@H]6C[Si](C)(C)CN6C(=O)[C@@H](NC(=O)OCCOC)C(C)C)[nH]c54)c3)cc2)[nH]1)C(C)C` [Compound 87], the EC50 in experiment [1] is > 100 nM; in experiment [2], > 10 nM; in experiment [3], > 100 nM; in experiment [4], > 1000 nM; in experiment [5], > 1000 nM; in experiment [6], 2.5 nM. The EC50 in experiment [7] is > 1 nM.

With `COC(=O)N[C@H](C(=O)N1C[Si](C)(C)C[C@H]1c1ncc(-c2ccc(-c3ccc4c(ccc5nc([C@@H]6C[C@@H](F)CN6C(=O)[C@@H](NC(=O)OC)C(C)C)[nH]c54)c3)c(F)c2)[nH]1)C(C)C` [Compound 57], the EC50 in experiment [1] was 0.798 nM; in experiment [2], 0.069 nM; in experiment [3], 0.652 nM; in experiment [5] it was 50 nM; in experiment [6] it was < 0.05 nM; in experiment [7] it was 0.068 nM.

As for `CC(C)[C@H](NC(=O)OC1(C)CC1)C(=O)N1CC(C)(C)C[C@H]1c1ncc(-c2ccc(-c3ccc4c(ccc5nc([C@@H]6C[Si](C)(C)CN6C(=O)[C@@H](NC(=O)OC6(C)CC6)C(C)C)[nH]c54)c3)cc2)[nH]1` [Compound 80], the EC50 is > 100 nM in experiment [1]; > 10 nM in experiment [2]; > 100 nM in experiment [3]; > 1000 nM in experiment [5]; > 1 nM in experiment [6]; > 1 nM in experiment [7].

Consider `CC(C)OC(=O)N[C@H](C(=O)N1C[Si](C)(C)C[C@@H]1c1ncc(-c2ccc(-c3ccc4c(ccc5nc([C@H]6C[C@H](F)CN6C(=O)[C@@H](NC(=O)OC(C)C)C(C)C)[nH]c54)c3)c(F)c2)[nH]1)C(C)C` [Compound 84], for which the EC50 in experiment [1] was > 100 nM; in experiment [2], > 10 nM; in experiment [3], > 100 nM; in experiment [5], > 1000 nM; in experiment [6] it was 2.4 nM; in experiment [7], > 1 nM.

With `COC(=O)N[C@H](C(=O)N1C[Si](C)(C)C[C@@H]1c1nc2ccc3cc(-c4ccc(-c5cnc([C@@H]6CC(C)(C)CN6C(=O)[C@@H](NC(=O)OC)C(C)C)[nH]5)cc4)ccc3c2[nH]1)C(C)C` [Compound 79], the concentration giving a half-maximal response (EC50) in experiment [1] turned out to be 4.4 nM; in experiment [2], 0.315 nM; in experiment [3], 0.45 nM; in experiment [5] it was 351 nM; in experiment [6] it was 0.012 nM; in experiment [7] it was 0.127 nM.

With `COC(=O)N[C@H](C(=O)N1C[Si]2(CCCC2)C[C@H]1c1ncc(-c2ccc(-c3ccc4c(ccc5nc([C@@H]6CC(F)(F)CN6C(=O)[C@@H](NC(=O)OC)C(C)C)[nH]c54)c3)cc2)[nH]1)C(C)C` [Compound 89], the EC50 in experiment [1] stood at 0.275 nM; in experiment [2], 0.5 nM; in experiment [3] it was 0.035 nM; in experiment [5], 211 nM; in experiment [6], 0.006 nM; in experiment [7], 0.054 nM.

`CC(C)[C@H](NC(=O)OC1(C)CC1)C(=O)N1C[Si](C)(C)C[C@@H]1c1ncc(-c2ccc(-c3ccc4c(ccc5nc([C@H]6C[C@H](F)CN6C(=O)[C@@H](NC(=O)OC6(C)CC6)C(C)C)[nH]c54)c3)c(F)c2)[nH]1` [Compound 83]: the EC50 in experiment [1] was > 100 nM; in experiment [2] it was > 10 nM; in experiment [3], > 100 nM; in experiment [5] it was > 1000 nM; in experiment [6] it was 52 nM; in experiment [7], > 1 nM.

Take `COC(=O)N[C@H](C(=O)N1C[Si]2(CCCC2)C[C@H]1c1ncc(-c2ccc(-c3ccc4c(ccc5nc([C@@H]6CCCN6C(=O)[C@@H](NC(=O)OC)C(C)C)[nH]c54)c3)cc2)[nH]1)C(C)C` [Compound 61]: the EC50 in experiment [1] is 0.2 nM; in experiment [2], 0.005 nM; in experiment [3], 0.076 nM; in experiment [5], 350 nM; in experiment [6], 0.005 nM; in experiment [7], 0.06 nM.

As for `COC(=O)N[C@H](C(=O)N1CC(F)(F)C[C@H]1c1ncc(-c2ccc(-c3ccc4c(ccc5nc([C@@H]6C[Si](C)(C)CN6C(=O)[C@@H](NC(=O)OC)C(C)C)[nH]c54)c3)c(F)c2)[nH]1)C(C)C` [Compound 60], the 50% effective concentration (EC50) in experiment [1] was 2.9 nM; in experiment [2] it was 0.09 nM; in experiment [3] it was 0.129 nM; in experiment [5], 96 nM; in experiment [6] it was 0.003 nM; in experiment [7] it was 0.06 nM.

For the compound `COC(=O)N[C@H](C(=O)N1CC(C)(C)C[C@H]1c1ncc(-c2ccc(-c3ccc4c(ccc5nc([C@@H]6C[Si](C)(C)CN6C(=O)[C@@H](NC(=O)OC)C(C)C)[nH]c54)c3)cc2)[nH]1)C(C)C` [Compound 78], the EC50 in experiment [1] amounted to 0.26 nM; in experiment [2], 0.04 nM; in experiment [3] it was 0.137 nM; in experiment [5], 90 nM; in experiment [6], 0.001 nM; in experiment [7] it was 0.015 nM.

Turning to `COC(=O)N[C@H](C(=O)N1CCS(=O)(=O)CC1c1ncc(-c2ccc(-c3ccc4c(ccc5nc([C@@H]6C[Si](C)(C)CN6C(=O)[C@@H](NC(=O)OC)C(C)C)[nH]c54)c3)cc2)[nH]1)C(C)C` (stereo partly drawn) [Compound 67], the EC50 in experiment [1] is 5 nM; in experiment [2], 0.16 nM; in experiment [3], 0.5 nM; in experiment [5] it was 380 nM; in experiment [6], 0.011 nM; in experiment [7], 0.19 nM.

Take `COC(=O)N[C@H](C(=O)N1CC(F)(F)C[C@H]1c1nc2ccc3cc(-c4ccc5c(ccc6nc([C@@H]7C[Si](C)(C)CN7C(=O)[C@@H](NC(=O)OC)C(C)C)[nH]c65)c4)ccc3c2[nH]1)C(C)C` [Compound 70]: the EC50 in experiment [1] stood at 0.118 nM; in experiment [2], 0.04 nM; in experiment [3] it was 0.077 nM; in experiment [5] it was 25 nM; in experiment [6], 0.007 nM; in experiment [7] it was 0.012 nM.

Take `COC(=O)N[C@H](C(=O)N1C[Si](C)(C)C[C@H]1c1ncc(-c2ccc(-c3ccc4c(ccc5nc([C@@H]6CC(F)(F)CN6C(=O)[C@@H](NC(=O)OC)C(C)C)[nH]c54)c3)c(F)c2)[nH]1)C(C)C` [Compound 58]: the EC50 was found to be 0.8 nM in experiment [1]; 0.15 nM in experiment [2]; 0.36 nM in experiment [3]; 118 nM in experiment [5]; 0.002 nM in experiment [6]; 0.03 nM in experiment [7].
